Data from PubChem BioAssay (NCI).
“And” between values parts separate entries of the source, which are not always exact repeats. Equal values may be shown once.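 Where inhibition never reached the appropriate level, the endpoint shown equals the highest concentration tested. Otherwise, values were interpolated linearly from a five-concentration, 48-hour dose response in 96-well plates. At the GI50, growth is halved. TGI: total growth inhibition.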

What was measured:
Assay in all cases: DTP human tumour cell line panel, 48 h
[1] = test system: OVCAR-3 ovarian
[2] = test system: HL-60(TB) leukemia
[3] = test system: T-47D breast
[4] = test system: MDA-MB-435
[5] = test system: NCI-H460 lung
[6] = test system: A549 NSCLC
[7] = test system: SK-OV-3 ovarian
[8] = test system: OVCAR-5 ovarian
[9] = test system: A498 renal
[10] = test system: UACC-62 melanoma

Row | Structure (SMILES) | TGI [1] | TGI [2] | TGI [3] | TGI [4] | TGI [5] | TGI [6] | TGI [7] | TGI [8] | TGI [9] | TGI [10] | GI50 [1] | GI50 [10] | GI50 [2] | GI50 [3] | GI50 [4] | GI50 [5] | GI50 [6] | GI50 [7] | GI50 [8] | GI50 [9]
1 | Oc1ccc(Cl)cc1Cc1cc(Cl)cc(Cc2cc(Cl)ccc2O)c1O | 11 µM | 8.38 µM | 7.56 µM | 9.3 µM | 4.96 µM | 10.6 µM | 8.5 µM | 12.2 µM | 4.28 µM | 10.1 µM | – | – | – | – | – | – | – | – | – | –
2 | O=C1C(CN(Cc2ccccc2)Cc2ccccc2)CCCC1CN(Cc1ccccc1)Cc1ccccc1 (configuration not stated) | 46.8 µM and > 100 µM | 12 µM and > 100 µM | > 100 µM | > 100 µM | > 100 µM | > 100 µM | > 77 µM and 97.5 µM | > 100 µM | 77.2 µM and > 100 µM | 45.2 µM and > 100 µM | 29.6 µM and > 100 µM | 29.2 µM and > 100 µM | – | – | – | – | – | – | – | –
3 | Nc1cccc(-c2nc3sccn3c2-c2ccnc(NCCCNS(=O)(=O)c3ccc(C(F)(F)F)cc3)n2)c1 | 23.4 µM | 11.8 µM | 5.18 µM | 12.3 µM | 58.6 µM | 87.4 µM | > 100 µM | 95.1 µM | 49.5 µM | 9.71 µM | 3.87 µM | 2.68 µM | 3.28 µM | 1.37 µM | 3.21 µM | 4.58 µM | 4.1 µM | 5.37 µM | 13.7 µM | 3.35 µM
4 | Cc1nc(NC(=O)COc2cccc(/C=C3\COc4ccccc4C3=O)c2)sc1C | 3.27 µM | > 29.9 µM | 10.4 µM | 5.74 µM | 11.3 µM | 12.4 µM | 21.3 µM | 3.88 µM | 25.2 µM | 4.51 µM | 1.83 µM | 2.05 µM | 2.8 µM | 2.9 µM | 2.14 µM | 3.19 µM | 3.7 µM | 8.97 µM | 1.94 µM | 12.6 µM
5 | CCNC(=O)Nc1ccc(-c2nc3c(c(N4CCOC[C@@H]4C)n2)CCN(C2COC2)C3)cc1 | > 69.5 µM | > 100 µM | 0.591 µM and 0.381 µM | > 25.6 µM | > 100 µM | > 100 µM | 1.16 µM and 0.956 µM | > 37.1 µM | 0.114 µM and 0.2 µM | 1.28 µM and 0.994 µM | 0.355 µM and 0.229 µM | 0.194 µM and 0.0727 µM | 7.44 µM and 4.61 µM | 0.0498 µM and 0.0316 µM | 0.3 µM and 0.318 µM | 0.236 µM and 0.13 µM | 0.354 µM and 0.384 µM | 0.148 µM and 0.131 µM | 0.302 µM and 0.384 µM | 0.0164 µM and 0.0305 µM
6 | NC(=O)c1ncn(C2OC(CO)C(O)C2O)n1 (configuration not stated) | > 100 µM | > 100 µM | > 100 µM | > 100 µM | > 100 µM | > 100 µM | > 100 µM | > 100 µM | > 100 µM | > 100 µM | 74.9 µM | > 100 µM | > 100 µM | 49.2 µM | > 100 µM | 64.2 µM | 62 µM | > 100 µM | > 100 µM | > 100 µM
7 | C[CH2][Sn]1([CH2]C)[O]C2C(O)OC(CO)C(O)C2[O]1 (configuration not stated) | > 100 µM | 39.1 µM | 32.3 µM | > 100 µM | > 100 µM | > 100 µM | > 100 µM | 47.3 µM | 42 µM | 39.6 µM | > 100 µM | 17.9 µM | 16.5 µM | 14.6 µM | 52.6 µM | > 100 µM | > 100 µM | > 100 µM | 20.8 µM | 18.9 µM
8 | COc1cc(C2=Nc3c/c(=C\c4c(O)[nH]c5ccc(Cl)cc45)ccc3=N2)cc(OC)c1OC | 11.1 µM | 14.6 µM | 37.3 µM | 3.86 µM | 8.65 µM | 10.7 µM | 32.5 µM | 38.8 µM | > 100 µM | 7.97 µM | 3.07 µM | 1.94 µM | 3.13 µM | 9.13 µM | 1.73 µM | 2.7 µM | 2.87 µM | 16.2 µM | 12 µM | 29.4 µM
9 | CN(C)c1cc2c(Nc3ccc4nc(Cc5ccccc5)[nH]c4c3)ncnc2cn1 | > 25 µM | > 25 µM | > 25 µM | > 25 µM | > 25 µM | > 25 µM | > 25 µM | > 25 µM | > 25 µM | > 25 µM | > 18.3 µM | > 18.3 µM | > 25 µM | > 16.4 µM | > 20.9 µM | 13.1 µM | 11.8 µM | 1.85 µM | 16.6 µM | > 13.9 µM
10 | CCCCCCCCCCCCCCCCCC(=O)[O][Sn]([CH2]CCC)([CH2]CCC)[CH2]CCC | 0.254 µM | 0.489 µM | 0.293 µM | 0.441 µM | 0.251 µM | 0.317 µM | 0.288 µM | 0.34 µM | 0.232 µM | 0.45 µM | 0.126 µM | 0.176 µM | 0.179 µM | 0.124 µM | 0.149 µM | 0.109 µM | 0.153 µM | 0.143 µM | 0.137 µM | 0.0904 µM
